Laboratory results: the CheMixHub viscosity set

Experiment: xn = mol fraction of the nth substance listed

C=CC(C)O (stereo unspecified) + O
viscosity [mPa·s], 101.32 kPa
Settings	x1 = 0.1003	x1 = 0.2	x1 = 0.3004	x1 = 0.4	x1 = 0.5013	x1 = 0.601	x1 = 0.7012	x1 = 0.8046	x1 = 0.9031
308.15 K	1.553	1.858	1.854	1.765	1.682	1.566	1.457	1.387	1.331
313.15 K	1.347	1.617	1.612	1.535	1.461	1.369	1.28	1.231	1.171
318.15 K	1.189	1.405	1.404	1.345	1.281	1.209	1.13	1.08	1.044
323.15 K	1.049	1.243	1.24	1.187	1.138	1.078	1.007	0.9691	0.9323

CCCC(=O)[O-].[Na+] + O
298.15 K, 101.33 kPa
Settings	viscosity [mPa·s]
x1 = 0.008927	1.136
x1 = 0.0177	1.436
x1 = 0.02631	1.793
x1 = 0.03478	2.235

COCCOCCOC + O
Settings	viscosity [mPa·s]
298.15 K, 101 kPa, x1 = 0.021	1.36
298.15 K, 101 kPa, x1 = 0.04611	2.03
298.15 K, 101 kPa, x1 = 0.08173	2.84
298.15 K, 101 kPa, x1 = 0.135	3.11
298.15 K, 101.32 kPa, x1 = 0.0104	1.16
298.15 K, 101.32 kPa, x1 = 0.0199	1.362
298.15 K, 101.32 kPa, x1 = 0.0677	2.567
298.15 K, 101.32 kPa, x1 = 0.1	2.959
298.15 K, 101.32 kPa, x1 = 0.1492	3.175
298.15 K, 101.32 kPa, x1 = 0.1978	2.936
298.15 K, 101.32 kPa, x1 = 0.2959	2.342
298.15 K, 101.32 kPa, x1 = 0.4011	1.881
298.15 K, 101.32 kPa, x1 = 0.4988	1.552
298.15 K, 101.32 kPa, x1 = 0.577	1.398
298.15 K, 101.32 kPa, x1 = 0.8569	1.084
298.15 K, 101.33 kPa, x1 = 0.0091	1.139
298.15 K, 101.33 kPa, x1 = 0.0188	1.403
298.15 K, 101.33 kPa, x1 = 0.0295	1.691
298.15 K, 101.33 kPa, x1 = 0.051	2.246
298.15 K, 101.33 kPa, x1 = 0.0854	2.993
298.15 K, 101.33 kPa, x1 = 0.1194	3.328
298.15 K, 101.33 kPa, x1 = 0.1604	3.232
298.15 K, 101.33 kPa, x1 = 0.2099	2.993
298.15 K, 101.33 kPa, x1 = 0.2597	2.661
298.15 K, 101.33 kPa, x1 = 0.3028	2.389
298.15 K, 101.33 kPa, x1 = 0.3461	2.153
298.15 K, 101.33 kPa, x1 = 0.3843	1.982
298.15 K, 101.33 kPa, x1 = 0.4327	1.791
298.15 K, 101.33 kPa, x1 = 0.4651	1.691
298.15 K, 101.33 kPa, x1 = 0.5196	1.536
298.15 K, 101.33 kPa, x1 = 0.608	1.356
298.15 K, 101.33 kPa, x1 = 0.659	1.272
298.15 K, 101.33 kPa, x1 = 0.7695	1.145
298.15 K, 101.33 kPa, x1 = 0.8171	1.103
298.15 K, 101.33 kPa, x1 = 0.8712	1.066
298.15 K, 101.33 kPa, x1 = 0.9453	1.024
303.15 K, 101 kPa, x1 = 0.021	1.19
303.15 K, 101 kPa, x1 = 0.04611	1.71
303.15 K, 101 kPa, x1 = 0.08173	2.35
303.15 K, 101 kPa, x1 = 0.135	2.62
313.15 K, 101 kPa, x1 = 0.021	0.94
313.15 K, 101 kPa, x1 = 0.04611	1.27
313.15 K, 101 kPa, x1 = 0.08173	1.75
313.15 K, 101 kPa, x1 = 0.135	1.93
323.15 K, 101 kPa, x1 = 0.021	0.78
323.15 K, 101 kPa, x1 = 0.04611	1.01
323.15 K, 101 kPa, x1 = 0.08173	1.34
323.15 K, 101 kPa, x1 = 0.135	1.46

Oc1ccccc1 + O=C1CCCCC1
298.15 K, 101.3 kPa
Settings	viscosity [mPa·s]
x2 = 0.79	2.24
x2 = 0.9	2.02

Oc1ccccc1 + O=Cc1ccccc1
308.15 K, 101.33 kPa
Settings	viscosity [mPa·s]
x2 = 0.107	4.318
x2 = 0.303	2.944
x2 = 0.39	2.642
x2 = 0.499	2.401
x2 = 0.595	1.989
x2 = 0.706	1.55
x2 = 0.904	1.2

ClC(Cl)C(Cl)Cl + O=S1(=O)CCCC1
viscosity [mPa·s], 100 kPa
Settings	x2 = 0.0224	x2 = 0.1377	x2 = 0.2568	x2 = 0.3746	x2 = 0.4803	x2 = 0.5855	x2 = 0.7134	x2 = 0.8418	x2 = 0.9751
303.15 K	1.674	2.8	3.962	5.052	5.983	6.858	7.865	8.855	9.835
308.15 K	1.537	2.519	3.525	4.469	5.292	6.043	6.927	7.779	8.631
313.15 K	1.417	2.285	3.173	4.004	4.72	5.396	6.171	6.937	7.691

CNc1ccccc1 + O=[N+]([O-])c1ccccc1
Settings	viscosity [mPa·s]
303.15 K, 101.3 kPa, x1 = 0.5	1.52

Oc1ccccc1 + O=[N+]([O-])c1ccccc1
293.15 K, 101 kPa
Settings	viscosity [mPa·s]
x1 = 0.0537	1.975
x1 = 0.113	2.041
x1 = 0.2245	2.208
x1 = 0.3306	2.46
x1 = 0.4448	2.845
x1 = 0.5641	3.53
x1 = 0.6497	4.19
x1 = 0.7623	5.4
x1 = 0.8785	7.59

C1N2CN3CN1CN(C2)C3 + [2H]O[2H]
viscosity [mPa·s], 101 kPa
Settings	x1 = 0.004002	x1 = 0.007971	x1 = 0.01158	x1 = 0.01549	x1 = 0.01969
293.15 K	1.217	1.252	1.311	1.396	1.515
298.15 K	1.106	1.141	1.189	1.258	1.35
300.15 K	1.007	1.036	1.077	1.135	1.219
305.15 K	0.92	0.962	1.002	1.049	1.108

O=S(=O)([O-])[O-].[Li+].[Li+] + [2H]O[2H]
viscosity [mPa·s], 101 kPa
Settings	x1 = 0.005	x1 = 0.016	x1 = 0.032	x1 = 0.052
298.15 K	1.243	1.74	2.887	5.343
308.15 K	0.975	1.355	2.216	3.964
318.15 K	0.802	1.102	1.77	3.084
